The values below come from patent publication US20230192617A1, “AZABICYCLIC(THIO)AMIDES AS FUNGICIDAL COMPOUNDS” (Bayer CropScience Aktiengesellschaft, priority 2020, published 2023).

One may read the chromatographic logP as lipophilicity estimated from chromatographic retention. Low readings indicate lower lipophilicity, high ones higher lipophilicity. A word on the inhibition: it is how much of the control response was suppressed.

Data set [1] in a line: Measurement of Log P values by HPLC on reversed phase columns (EEC directive 79/831 Annex V.A8). Format: physicochemical. The following applies: reversed phase HPLC column, method [a]: LC-UV, acidic range, 0.1% formic acid in water and acetonitrile as eluent. Summed up:
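Log P derived from retention on reversed-phase columns (EEC directive 79/831 Annex V.A8), LC-UV, acetonitrile gradient 10% to 95% against water containing 0.1% formic acid, 0.001 M ammonium acetate, or 0.1% phosphoric acid; several values per method separated by "+".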

Data set [2] concerns Alternaria brassicae. Put plainly: In vivo preventive test on Alternaria brassicae (leaf spot on radish or cabbage). The settings on record: 500 ppm of active ingredient, preventive spray on radish or cabbage, evaluated 3 to 4 days after inoculation, read-out: efficacy. Summed up: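 Protective spray on young radish or cabbage: actives in water diluted from DMSO/acetone/Tween 80, with solvent-only controls. Leaves were challenged after 24 h with a spore suspension, and plants were held at 100% RH, 20 °C for 3 to 4 days.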

In data set [3] the test system is Botrytis cinerea. Put plainly: In vivo preventive test on Botrytis cinerea (grey mould). The settings on record: 500 ppm of active ingredient, preventive spray on gherkin or cabbage, evaluated 4 to 5 days after inoculation, read-out: efficacy. Summed up:
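Preventive spray on cabbage or gherkin seedlings, with compound formulated in DMSO/acetone/Tween 80 and water-diluted, preceded spore inoculation by 24 hours. Cabbage was held 4 to 5 days at 20° C., 100% relative humidity; gherkin 4 to 5 days at 17° C., 90% relative humidity.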

Data set [4] has as its system Pyrenophora teres. The data set can be described thus: In vivo preventive test on Pyrenophora teres (net blotch on barley). The following applies: 240 h, 500 ppm of active ingredient, preventive spray on barley, evaluated 10 days after inoculation, read-out: efficacy. As for the experimental part:
B-3. In Vivo Preventive Test on Pyrenophora Teres (Net Blotch on Barley) [table] The active ingredients were made soluble and homogenized in a mixture of Dimethyl sulfoxide/Acetone/Tween® 80 and then diluted in water to the desired concentration. The young plants of barley were treated by spraying the active ingredient prepared as described above. Control plants were treated only with an aqueous solution of Acetone/Dimethyl sulfoxide/Tween® 80. After 24 hours, the plants were contaminated by spraying the leaves with an aqueous suspension of Pyrenophora teres spores. The contaminated barley plants were incubated for 48 hours at 20° C. and at 100% relative humidity and then for 8 days at 20° C. and at 70-80% relative humidity.

Data set [5] concerns Sphaerotheca fuliginea. Put plainly: In vivo preventive test on Sphaerotheca fuliginea (powdery mildew on cucurbits). The settings on record: Podosphaera fuliginea, 192 h; 500 ppm of active ingredient; preventive spray on gherkin; evaluated 8 days after inoculation; read-out: efficacy. In outline: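 This is a preventive spray test on gherkin seedlings, with compound formulated in DMSO/acetone/Tween 80 in water and solvent-only controls. Spore inoculation followed one day after treatment. Incubation lasted 8 days at 20 °C, 70–80% RH.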

For data set [6], the system named is Alternaria alternata. The data set can be described thus: Alternaria alternata in vitro cell test. Format: cell-based. The following applies: 120 h, 20 ppm of active ingredient, liquid culture, 5 days incubation, spectrometric measurement of mycelium growth, read-out: efficacy (inhibition of fungal growth). In outline: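 Spectrometric readout of mycelial growth after 5-day incubation gauged compound effects on spore germination and growth of A. alternata in liquid medium. Compounds were delivered in DMSO at ≤1% final. Absorbance was compared with untreated controls to give inhibition.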

The test system of data set [7] is Colletotrichum lindemuthianum. The data set can be described thus: B-8. Colletotrichum lindemuthianum in vitro cell test. Format: cell-based. The following applies: 144 h, 20 ppm of active ingredient, 6 days incubation, liquid culture, absorbance, read-out: efficacy (inhibition of fungal growth). Summed up:
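Liquid-culture germination/growth test: compounds in ≤1% final DMSO were added to spore-containing medium. Fungal growth was quantified spectrophotometrically after 6 days of incubation and expressed as inhibition versus untreated controls.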

In data set [8] the test system is Botrytis cinerea. Put plainly: B-11. Botrytis cinerea in vitro cell test. The settings on record: 144 h, 20 ppm of active ingredient, 6 days incubation, liquid culture, absorbance, read-out: efficacy (inhibition of fungal growth). Format: cell-based. In outline:
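B. cinerea spores were grown in liquid culture with compound (DMSO ≤1% final). Mycelium growth was measured spectrometrically after 6 days, with inhibition taken as absorbance relative to untreated control wells.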

The test system of data set [9] is Colletotrichum lindemuthianum. Put plainly: In vivo preventive test on Colletotrichum lindemuthianum (leaf spot on bean). The following applies: 168 h, 500 ppm of active ingredient, preventive spray on bean, evaluated 7 days after inoculation, read-out: efficacy. As to the method:
B-5. In Vivo Preventive Test on Colletotrichum lindemuthianum (Leaf Spot on Bean) [table] The active ingredients were made soluble and homogenized in a mixture of Dimethyl sulfoxide/Acetone/Tween® 80 and then diluted in water to the desired concentration. The young plants of bean were treated by spraying the active ingredient prepared as described above. Control plants were treated only with an aqueous solution of Acetone/Dimethyl sulfoxide/Tween® 80. After 24 hours, the plants were contaminated by spraying the leaves with an aqueous suspension of Colletotrichum lindemuthianum spores. The contaminated bean plants were incubated for 24 hours at 20° C. and at 100% relative humidity and then for 6 days at 20° C. and at 90% relative humidity.

For data set [10], the system named is Pyrenophora teres. The data set can be described thus: B-10. Pyrenophora teres in vitro cell test. Format: cell-based. The settings on record: 144 h, 20 ppm of active ingredient, 6 days incubation, liquid culture, absorbance, read-out: efficacy (inhibition of fungal growth). In outline: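 Liquid-culture assay on a P. teres spore suspension with compounds added to the medium from DMSO solutions, final DMSO ≤1%. Mycelium growth read spectrometrically after 6 days. Inhibition calculated from absorbance against untreated control wells.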

`Cc1ccc2c(C(=O)NC[C@H](F)c3ccc(Cl)cc3Cl)c(Oc3cccc(C(F)(F)F)c3)nnc2c1` (racemic) [I-047] yielded a chromatographic logP in data set [1] of 4.45. Also, the pest or weed control at 500 ppm in [2] fell in the range of 90 to 100%; in data set [3], 90 to 100%; in [4], 80 to 89%; in [5], 90 to 100%. Moreover, the inhibition at 20 ppm in data set [6] and in data set [7] was 90 to 100% throughout.

Molecule `Cc1cc(C(F)F)ccc1[C@@H](F)CNC(=O)c1c(Oc2cccc(Cl)c2)nnc2ccccc12` (racemic) [I-049] displayed a chromatographic logP in data set [1] of 3.84. Also, the pest or weed control at 500 ppm in data set [2] is 90 to 100%; in data set [3], 90 to 100%; in data set [4], 80 to 89%. Besides, the inhibition at 20 ppm in data set [6], in data set [7] and in data set [8] was 90 to 100% throughout.

In data set [1], `Cc1ccc([C@@H](F)CNC(=O)c2c(Oc3cccc(Cl)c3)nnc3ccccc23)c(Cl)c1` (racemic) [I-052] returned a chromatographic logP of 4.19. Moreover, the pest or weed control at 500 ppm in data set [2], in [3], in data set [5] and in data set [9] was 90 to 100% each time. Moreover, the inhibition at 20 ppm in data set [6], in [7] and in data set [8] was 90 to 100% each time.

`Cc1ccc([C@@H](F)CNC(=O)c2c(Oc3cccc(C(F)(F)F)c3)cnc3ccccc23)cc1C` (racemic) [I-056] gave a chromatographic logP in data set [1] of 4.33. The pest or weed control at 500 ppm in [2], in data set [3], in data set [5] and in [9] was 90 to 100% each time. For the same molecule, the inhibition at 20 ppm in data set [6], in data set [7] and in [8] was 90 to 100% throughout.

Molecule `Cc1ccc([C@@H](F)CNC(=O)c2c(Oc3cccc(C(F)(F)F)c3)cnc3ccccc23)c(Cl)c1` (racemic) [I-060] returned a chromatographic logP in data set [1] of 4.4. Further, the pest or weed control at 500 ppm in data set [2], in [3], in data set [5] and in data set [9] was 90 to 100% throughout. For the same molecule, the inhibition at 20 ppm in [6], in [7] and in [8] was 90 to 100% each time.

For the molecule `Cc1cc(Cl)ccc1[C@@H](F)CNC(=O)c1c(Oc2cccc(C(F)(F)F)c2)cnc2ccccc12` (racemic) [I-061], the chromatographic logP in [1] amounted to 4.47. The pest or weed control at 500 ppm was in the range of 90 to 100% in [2], 90 to 100% in data set [3], 90 to 100% in [5] and 70 to 79% in data set [9]. Moreover, the inhibition at 20 ppm in [6], in data set [7] and in data set [8] was 90 to 100% each time.

With `Cc1cccc(Oc2nnc3ccccc3c2C(=O)NCC(F)(F)c2ccc(Cl)cc2)c1` [I-014], the chromatographic logP in [1] was determined as 3.87. The pest or weed control at 500 ppm fell in the range of 90 to 100% in data set [2], 90 to 100% in data set [3], 70 to 79% in data set [4] and 90 to 100% in [5]. In addition, the inhibition at 20 ppm in data set [6] and in data set [7] was 90 to 100% in each case.

In turn, `Cc1cccc(Oc2nnc3ccccc3c2C(=O)NCC(F)(F)c2ccc(Br)cc2Cl)c1` [I-015] came in with a chromatographic logP in data set [1] of 4.37. In addition, the pest or weed control at 500 ppm in data set [2] lay within 90 to 100%; in data set [3] it was 90 to 100%; in [4], 70 to 79%; in data set [5], 90 to 100%. In addition, the inhibition at 20 ppm in [6] and in data set [7] was 90 to 100% each time.

As for `C=Cc1ccc(C(F)(F)CNC(=O)c2c(Oc3cccc(C(F)(F)F)c3)nnc3ccccc23)c(Cl)c1` [I-064], the chromatographic logP in data set [1] was 4.62. Also, the pest or weed control at 500 ppm lay within 90 to 100% in data set [2], 90 to 100% in data set [3] and 80 to 89% in data set [4]. The inhibition at 20 ppm in data set [6], in data set [7] and in [8] was 90 to 100% throughout.

The molecule `O=C(NCC(F)(F)c1ccc(Br)cc1Cl)c1c(Oc2cccc(C(F)(F)F)c2)nnc2c1OCCO2` [I-103] yielded a chromatographic logP in data set [1] of 3.6. Further, the pest or weed control at 500 ppm in data set [2] lay in the range of 80 to 89%; in data set [3], 90 to 100%; in data set [5] it was 90 to 100%; in data set [9], 80 to 89%. The inhibition at 20 ppm in data set [6] and in data set [7] was 90 to 100% in each case.

`Cc1ccc(C(F)(F)CNC(=O)c2c(Oc3cccc(C(F)(F)F)c3)nnc3c2OCCO3)c(C)c1` [I-106] returned a chromatographic logP in [1] of 3.37. In addition, the pest or weed control at 500 ppm in data set [2], in data set [3], in [5] and in data set [9] was 90 to 100% in each case. In addition, the inhibition at 20 ppm in data set [6] and in data set [7] was 90 to 100% throughout.

In [1], `Cc1ccc(C(F)(F)CNC(=O)c2c(Oc3cccc(C(F)(F)F)c3)nnc3c2CC(O)CC3)c(C)c1` (centres unmarked) [I-117] had a chromatographic logP of 3.18. Also, the pest or weed control at 500 ppm in [2] is 70 to 79%; in [3], 90 to 100%; in [5] it was 90 to 100%; in data set [9], 90 to 100%. Further, the inhibition at 20 ppm in [6], in [7] and in [8] was 90 to 100% throughout.

In turn, `Cc1ccc(C(F)(F)CNC(=O)c2c(Oc3cccc(C(F)(F)F)c3)nnc3cnccc23)c(C)c1` [I-162] displayed a chromatographic logP in data set [1] of 4.15. For the same molecule, the values for the pest or weed control at 500 ppm in data set [2] and in [4] were 90 to 100% and 70 to 79%, respectively. In addition, the inhibition at 20 ppm in [6], in data set [7], in [10] and in [8] was 90 to 100% in each case.

In [1], `Cc1ccc(C(F)(F)CNC(=O)c2c(Oc3cccc(C(F)(F)F)c3)nnc3cc(F)ccc23)c(Cl)c1` [I-171] came in with a chromatographic logP of 4.66. Moreover, the pest or weed control at 500 ppm in data set [2] lay within 90 to 100%; in data set [4], 70 to 79%. The inhibition at 20 ppm in data set [6], in data set [7], in data set [10] and in data set [8] was 90 to 100% each time.

Consider `CCN(CCc1ccccc1)C(=O)c1c(Oc2cccc(C(F)(F)F)c2)nnc2ccccc12` [I-205], for which, in data set [1], the chromatographic logP was 4.28. The results for the pest or weed control at 500 ppm in [3], in [4] and in data set [5] were 80 to 89%, 80 to 89% and 70 to 79%, respectively.
